Assay results: article PMC9714824, “Hexapeptides from mammalian inhibitory hormone hunt activate and inactivate nematode reproduction” (PLOS ONE, 2022)

How the values were obtained:
DU145 cells = assay: MTS viable cell assay, DU145 (Epistem); format: cell-based, human; settings: DU145; 150 μM (highest concentration); 72h
Outline: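 DU145 or LNCaP cells, 3,000/well in RPMI with 10% FCS, grown 24 h, then peptide added: multiple dose levels, repeated after 24 h, for DU145; single dose level, once, for LNCaP; vehicle 1% PBS. MTS absorbance 492 nm at 72 h after first dose, background-subtracted OD mean±SEM; ANOVA with Dunnett's test.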

[1] = tested on: compensatory renal growth; settings: in words; cited from earlier work
Method: The 14-residue N-terminal Edman sequence EPL001 was determined in the context of a polypeptide candidate of m/z ~7,500 (‘Candidate 7500’) in MALDI-TOF mass spectrometry (MS) and a corresponding band in SDS polyacrylamide gel electrophoresis, implying a chain of ~70 aa for the native molecule. In spite of comprising only 20% of Candidate 7500, EPL001 surpris ...

[2] = tested on: MCF 7 human breast cancer cells; settings: in words; EPL120 over 72h, dose range 0.04 nM– 4 μM; cited from earlier work
PNT2 cells = assay: MTS colorimetric viable cell assay, PNT2; format: cell-based, human; settings: 30 μM, 27h, 492 nm, triplicate
Outline: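 Cells seeded at 8,000/well, given peptides (14mer to 6mer) at 30 μM final at the outset, triplicate, buffer controls; viable cells by MTS absorbance at 492 nm after 27 h growth. Data as OD mean ± SEM, two-tailed t-test; a 14mer time course on PC3 read at 24 and 48 h.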

hMSCs = tested on: hMSCs; design: method as in earlier work; settings: EPL001 0.15µM or EPL140 15µM, three days; cited from earlier work
[3] = tested on: hDPSC (Human Dental Pulp Derived Mesenchymal-Like Stem/Progenitor Cells); design: method as in earlier work; settings: EPL001 0.15µM or EPL140 15µM, three days; cited from earlier work
LNCaP cells = assay: MTS viable cell assay, LNCaP (Epistem); format: cell-based, human; settings: over 72h, single dose level
Method: Further assays on human prostate cancer cells were conducted at a contract research organisation (Epistem, Manchester, UK). LNCaP or DU145 cells seeded at 3,000 cells/well across a 96-well plate were cultured in RPMI (phenol red free), 10% FCS, 1% sodium pyruvate, Pen/strep and L-glutamine for 24h before exposure to peptides, at a single dose level in the case of LNCaPs or multiple dose levels in the case of DU145s. (For dose levels see Results.) Controls received vehicle (1% PBS). For the DU145s peptide administration was repeated after 24h. 72h after the first administration (DU145s) or only administration (LNCaP) total viable cell numbers were measured colorimetrically (MTS) using a CellTiter 96 AQueous One Solution Cell Proliferation Assay (Promega, Southampton, UK), following manufacturer’s instructions. Briefly, the media on the plates was replaced with the CellTiter reagent diluted 1:5 in DMEM. The plates were returned to the incubator for 3 hours before reading absorbance at 492 nm on a FLUORstar OPTIMA (BMG Labtech). CellTiter data are the absorbance minus background values (CellTiter plus DMEM), expressed as (OD mean +/− SEM). Statistical analysis was by ANOVA, Dunnett’s multiple comparisons test.

In the case of “MKPLTGKVKEFNNI [EPL001, 14mer master test peptide …; ovine provenance]”, the “Test mean OD vs control mean” value (DU145 cells) is listed as −16.5%, the “Effect on rat compensatory renal growth” value [1] is listed as “anti-organotrophic” and the “Inhibition of IGF-1 stimulated growth in MCF-7 cell numbers” value [2] is listed as “inhibits the proliferation”. The “Difference in percentage terms between control and test OD means” value (PNT2 cells) was “+3.1%”, the Bmal1 expression (hMSCs) was “↑↑” and the OCN expression (hMSCs) was “↓”. The PPARγ expression (hMSCs) was “↓”, the Per2 expression (hMSCs) was “↓” and the Sox9 expression (hMSCs) was “↓”. The Bmal1 expression [3] was “↑”, the OCN expression [3] was “↓↓” and the PPARγ expression [3] was “↓↓”. For the same sequence, the Per2 expression [3] was “↑”, the Rev-ErbA expression [3] was “↓” and the Sox9 expression [3] was “(↓)”. The “Reduction in test mean OD versus the vehicle control mean” value (LNCaP cells) was -17.0%.
